# Patent publication US20060057696A1, “Sugar chain synthases” (priority 2002, published 2006)
# How the values were obtained:
# [1] = molecular target: T1, PA-hST8Sia VI (human ST8Sia VI) (Homo sapiens, UniProt P61647, L267F); assay: Sialyltransferase activity of PA-hST8Sia VI toward acceptor substrates; assay type: biochemical; details: incorporation with Fetuin taken as 100, substrate 0.5 mg/ml glycolipids, 1 mg/ml glycoproteins, monosaccharides and oligosaccharides
# T1 construct: amino acids 68-398 in the case of human ST8Sia VI; signal peptide of mouse immunoglobulin IgM (N); made in house; host or cells: COS-7 cells, transient expression of pcDSA-hST8Sia VI; protein recovered from medium on IgG-Sepharose
# T1 sequence (P61647 68-398 L267F): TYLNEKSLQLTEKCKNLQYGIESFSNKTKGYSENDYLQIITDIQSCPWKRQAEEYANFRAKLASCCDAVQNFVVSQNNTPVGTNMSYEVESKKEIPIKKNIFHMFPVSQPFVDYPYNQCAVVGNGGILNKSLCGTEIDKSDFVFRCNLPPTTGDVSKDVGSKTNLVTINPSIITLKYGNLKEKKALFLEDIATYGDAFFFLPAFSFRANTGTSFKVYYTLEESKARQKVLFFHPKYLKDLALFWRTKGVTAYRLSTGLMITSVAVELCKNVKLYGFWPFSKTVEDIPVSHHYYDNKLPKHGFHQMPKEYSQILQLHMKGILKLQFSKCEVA
# Protocol: (§1) Using each expression vector and lipofectamine (Invitrogen), transient expression was carried out in COS-7 cells (Kojima, N. et al. (1995) FEBS Lett. 360, 1-4). The proteins of the present invention secreted from the cells into which each expression vector had been introduced were named as PA-mST8Sia VI (mouse) and PA-hST8Sia VI (human). PA-mST8Sia VI and PA-hST8Sia VI were adsorbed to IgG-Sepharose (Amersham Pharmacia Biotech), and were then recovered from medium. Sialyltransferase activity was measured as follows according to the method of Lee et al. (Lee, Y.-C. et al. (1999) J. Biol. Chem. 274, 11958-11967). A reaction solution (10 μl) containing 50 mM MES buffer (pH 6.0), 1 mM MgCl2, 1 mM CaCl2, 0.5% Triton CF-54, 100 μM CMP-[^14C]-NeuAc, a glycoconjugate (which was added at 0.5 mg/ml in the case of glycolipids, and at 1 mg/ml in the case of glycoproteins or oligosaccharides), and a PA-mST8Sia VI or PA-hST8Sia VI suspension, was incubated at 37° C. for 3 to 20 hours. Thereafter, in the case of glycolipids, the reaction product was purified with a C-18 column (Sep-Pak Vac 100 mg; Waters) and the purified product was used as a sample, and in the case of oligosaccharides or glycoproteins, the reaction product was directly used as a sample. Thus, the obtained samples were subjected to analysis. In the case of oligosaccharides or glycolipids, the sample was spotted on a silica gel 60 HPTLC plate (Merck), and was then developed with a developing solvent consisting of ethanol:pyridine:n-butanol:water:acetic acid=100:10:10:30:3 (for oligosaccharides), a developing solvent consisting of 1-propanol:ammonia water:water=6:1:2.5 (for oligosaccharides), or a developing solvent consisting of chloroform:methanol: 0.02% CaCl2=55:45:10 (for glycolipids). In the case of glycoproteins, analysis was carried out by SDS-polyacrylamide gel electrophoresis. The obtained radioactivities were visualized with a BAS2000 radio image analyzer (Fuji Film) and then quantified.
# [2] = molecular target: T2, PA-mST8Sia VI (mouse ST8Sia VI) (Mus musculus, UniProt Q8K4T1); assay: Sialyltransferase activity of PA-mST8Sia VI toward acceptor substrates; assay type: biochemical; details: for Relative rate (%) Mouse ST8SiaVI: incorporation with Fetuin taken as 100, substrate 0.5 mg/ml glycolipids, 1 mg/ml glycoproteins, monosaccharides and oligosaccharides
# T2 construct: amino acids 26-398 in the case of mouse ST8Sia VI; signal peptide of mouse immunoglobulin IgM (N); made in house; host or cells: COS-7 cells, transient expression of pcDSA-mST8Sia VI; protein recovered from medium on IgG-Sepharose
# T2 sequence (Q8K4T1 26-398): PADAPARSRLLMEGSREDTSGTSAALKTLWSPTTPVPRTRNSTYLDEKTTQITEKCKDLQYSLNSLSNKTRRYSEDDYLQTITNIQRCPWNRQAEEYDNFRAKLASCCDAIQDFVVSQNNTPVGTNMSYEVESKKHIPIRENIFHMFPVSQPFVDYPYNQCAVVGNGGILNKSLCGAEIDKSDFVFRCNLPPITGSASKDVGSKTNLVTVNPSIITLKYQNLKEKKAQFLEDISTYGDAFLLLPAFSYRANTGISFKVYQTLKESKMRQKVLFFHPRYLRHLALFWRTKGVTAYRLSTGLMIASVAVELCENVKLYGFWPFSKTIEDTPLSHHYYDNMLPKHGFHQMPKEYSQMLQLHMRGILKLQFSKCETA
# Protocol: as §1
Relative rate (%) Human ST8Sia VI [1],activity of PA-mST8Sia VI on the substrate (in words) [2],Relative rate (%) Mouse ST8SiaVI [2],Molecule
2.2%,showed activity,1.1%,"NeuAcα2,8Galβ1,3GalNAcβ1,4(NeuAcα2,8NeuAcα2,3)Galβ1,4Glcβ1-Cer [GT1b]"
10.7%,–,91.5%,"CC(=O)NC1C(O)CC(OCC2OC(OC3C(CO)OC(O)C(O)C3O)C(O)C(O)C2O)(C(=O)O)OC1C(O)C(O)CO (centres unmarked) [6′-Sialyllactose, NeuAcα2,6Galβ1,4Glc]"
